In US20030082722A1, “Method for amplifying expression from a cell specific promoter” (priority 2001, published 2003):
Where two headings read alike, the source gives them in different places.

B1: TRAIL protein: recombinant soluble TRAIL protein (R & D Systems) (protein, UniProt P50591 39-281, looked up)
extracellular domain: TNELKQMQDKYSKSGIACFLKEDDSYWDPNDEESMNSPCWQVKWQLRQLVRKMILRTSEETISTVQEKQQNISPLVRERGPQRVAAHITGTRGRSNTLSSPNSKNEKALGRKINSWESSRSGHSFLSNLHLRNGELVIHEKGFYYIYSQTYFRFQEEIKENTKNDKQMVQYIYKYTSYPDPILLMKSARNSCWSKDAEYGLYSIYQGGIFELKENDRIFVSVTNEHLIDMDHEASFFGAFLVG
modifications: extracellular domain recombinant soluble

Assays:
[1] = test system: MDA-MB-231; experiment: IC50 of chemotherapeutic agents and Ad/gTRAIL, parental cells; format: cell-based, human
Protocol: Cell Lines and Reagents. Human breast cancer cell lines MCF7, MDA-MB-231, MDA-MB-453, and MDA-MB-468 were grown in RPMI 1640 medium supplemented with 10% heat-inactivated fetal bovine serum, and antibiotics, and glutamine. Immortalized nontransformed breast epithelial cell lines MCF10A and MCF10F and normal human mammary epithelial cells (NHMEC) were purchased from Clonetics (San Diego, Calif.). Primary normal human mammary epithelial cells (PNHMEC) isolated from normal breast tissue (Stampfer and Yaswen, 1994) were provided by Dr. Yinhua Yu (The University of Texas M. D. Anderson Cancer Center). Doxorubicin-resistant MDA-MB-231 cells were obtained through the stepwise exposure of the parental cells to doxorubicin. […] The residual surviving cells were then allowed to grow in fresh medium. When these residual cells reached 70-80% confluence in the plate, they were treated again with the same concentration of doxorubicin. After this cycle was repeated several times, the concentration of doxorubicin was increased multiple times followed by the regrowth of cells. […] Other agents used in these experiments included gemcitabine (Eli Lilly and Co., Indianapolis, Ind.), vinorelbine (Pierre Fabre, Idron 64320, France), paclitaxel (Bristol-Myers Squibb Co., Princeton, N.J.), irinotecan (Pharmacia & Upjohn Co., Kalamazoo, Mich.), floxuridine (Ben Venue Labs, Inc., Bedford, Ohio), and TRAIL protein (R & D Systems, Minneapolis, Minn.).
Assays. Cell viability, flow cytometry, and Western blot analysis were performed as described in previous examples. See also Gu et al., 2000 and Kagawa et al., 2001. Biochemical analysis, using β-galactosidase was determined as dexcribed in Example 1. For Western analysis anti-caspase-8 (R&D systems, Minneapolis, Minn.), anti-caspase-3 (BD PharMingen, San Diego, Calif.), anti-PARP (BD PharMingen), anti-GFP (Clontech Inc., Palo Alto, Calif.), and anti-hTRAIL (Alexis, San Diego, Calif.) antibodies were used. Apoptosis in tumors was assessed by in situ TUNEL staining as decribed in Example 3.
Statistical Analysis. Differences among the treatment groups were assessed as described in previous examples. Survival was assessed using the Kaplan-Meier method. The drug concentration that inhibited cells growth by 50% (IC50) was calculated by CurveExpert 1.3 software (Starkville, Miss.).

[2] = test system: 231/ADR; experiment: IC50 of chemotherapeutic agents and Ad/gTRAIL, doxorubicin-resistant cells; format: cell-based, human; settings: for IC50: Homo sapiens
Protocol: Cell Lines and Reagents. […] Immortalized nontransformed breast epithelial cell lines MCF10A and MCF10F and normal human mammary epithelial cells (NHMEC) were purchased from Clonetics (San Diego, Calif.). […] Doxorubicin-resistant MDA-MB-231 cells were obtained through the stepwise exposure of the parental cells to doxorubicin. […] The residual surviving cells were then allowed to grow in fresh medium. When these residual cells reached 70-80% confluence in the plate, they were treated again with the same concentration of doxorubicin. After this cycle was repeated several times, the concentration of doxorubicin was increased multiple times followed by the regrowth of cells.
Assays. Cell viability, flow cytometry, and Western blot analysis were performed as described in previous examples. […] For Western analysis anti-caspase-8 (R&D systems, Minneapolis, Minn.), anti-caspase-3 (BD PharMingen, San Diego, Calif.), anti-PARP (BD PharMingen), anti-GFP (Clontech Inc., Palo Alto, Calif.), and anti-hTRAIL (Alexis, San Diego, Calif.) antibodies were used.
Statistical Analysis. Differences among the treatment groups were assessed as described in previous examples. Survival was assessed using the Kaplan-Meier method.

[3] = test system: DLD1/TRAIL-R; experiment: Sensitizing TRAIL-resistant cells to Ad/gTRAIL by chemotherapeutic agents; settings: Ad/gTRAIL 1000 viral particles/cell; 96 h
Protocol: Chemotherapeutic agents concentrations are shown on the bottom of each graph. […] Cell viability was determined at 96 h after treatment. Levels are mean+/−SD of two quadruplet assays. […] Cells were treated with adenovector at 1000 moi (vp), 5-FU 50 μm and 1.25 μm MMC. In combination group, the dose were the same as the single agent group. Cells were harvested at 96 h after treatment and cell lysate was used for Western blot analysis.

[4] = test system: lung metastasis derived from breast cancer cells 231/ADR; experiment: Lung metastatic tumor model, aerosolized Ad/gTRAIL with paclitaxol; format: in vivo, nude mice; settings: day 35 after starting treatment
Protocol: The aerosol vector administration are the following: adenovirus of 1×10^12 particles was diluted in PBS to a final volume of Iml and was mixed with 500 μl (5 mg) of protamine. […] The complex was placed into the nebulizer chamber. The aerosol from the nebulizer was passed through a sealed plastic cage that housed the mice. The exposure required approximately 50 minutes, during which time the mice were allowed to move freely about the cage.

[5] = test system: H1299 lung cancer cells
Description: Construction of Ad/gBax. […] This bicistronic vector as modified combined the two expression cassettes of the Tet-Off system (BD Clontech, San Francisco, Calif., USA) into a single vector (FIG. 28). […] The second cassette contained the cDNA of the GFP/Bax fusion protein under the control of a compound promoter consisting of TRE and the minimal immediate early promoter of CMV. GFP was included to facilitate the selection of recombinant virus and the detection of expression products.

[6] = test system: lung; experiment: Reporter gene expression in lung after aerosolized vector; format: in vivo, mice; settings: protamine 1 mg/ml, hydrocortisone 250 ng/ml
Protocol: The aerosol vector administration are the following: adenovirus of 1×10^12 particles was diluted in PBS to a final volume of Iml and was mixed with 500 μl (5 mg) of protamine. The Protamine-adenovirus complex was mixed with 5 ml hydrocortisone (concentration of 250 ng/ml in H2O) after incubating 10 min at room temperature. The complex was placed into the nebulizer chamber. The aerosol from the nebulizer was passed through a sealed plastic cage that housed the mice. The exposure required approximately 50 minutes, during which time the mice were allowed to move freely about the cage.
Treatment of lung metastasis by aerosolized vector administration was also tested. […] Subsequent aerosol administration of adenovectors will contain protamine and hydrocortisone in the vector solution.

[7] = test system: MDA-MB-231, MDA-MB-468, MDA-MB-453 and MCF7 cells; experiment: Cell viability after recombinant TRAIL protein; format: cell-based, human
Protocol: Cell Lines and Reagents. Human breast cancer cell lines MCF7, MDA-MB-231, MDA-MB-453, and MDA-MB-468 were grown in RPMI 1640 medium supplemented with 10% heat-inactivated fetal bovine serum, and antibiotics, and glutamine. Immortalized nontransformed breast epithelial cell lines MCF10A and MCF10F and normal human mammary epithelial cells (NHMEC) were purchased from Clonetics (San Diego, Calif.). Primary normal human mammary epithelial cells (PNHMEC) isolated from normal breast tissue (Stampfer and Yaswen, 1994) were provided by Dr. Yinhua Yu (The University of Texas M. D. Anderson Cancer Center). Doxorubicin-resistant MDA-MB-231 cells were obtained through the stepwise exposure of the parental cells to doxorubicin. In brief, the parental MDA-MB-231 cells were treated with doxorubicin (Ben Venue Labs, Inc., Bedford, Ohio) at concentration of 2 μM (1.16 μg/ml, which is the IC80 of MDA-MB-231 cells). Most cells were killed after day 4 of treatment. The residual surviving cells were then allowed to grow in fresh medium. When these residual cells reached 70-80% confluence in the plate, they were treated again with the same concentration of doxorubicin. […]
To test whether these cells were similarly sensitive to soluble TRAIL protein, cells were treated with recombinant TRAIL protein at various concentrations up to 800 ng/ml. Cell viability was then determined at 24, 48, and 96 h after treatment. […]

[8] = Homo sapiens, MDA-MB-231, read-out: IC50

Molecule	IC50 ([1]; Homo sapiens, MDA-MB-231)	IC50 [2]	sensitization of DLD1/TRAIL-R to Ad/gTRAIL (cell viability) [3]	other results
COc1cccc2c1C(=O)c1c(O)c3c(c(O)c1C2=O)C[C@@](O)(C(=O)CO)C[C@@H]3O[C@H]1C[C@H](N)[C@H](O)[C@H](C)O1 [Doxorubicin, doxorubicin]	1140 nM	97600 nM	can sensitize DLD1/TRAIL-R to Ad/gTRAIL at certain concentrations	IC80 ([1]; Homo sapiens, MDA-MB-231): 2000 nM; susceptibility to doxorubicin ([1]; parental MDA-MB-231, 2 μM): susceptible; susceptibility to doxorubicin ([2]; 16 μM): resistant
O=c1[nH]c(=O)n([C@H]2C[C@H](O)[C@@H](CO)O2)cc1F [Floxuridine, floxuridine]	100 nM	4700 nM	can be sensitized to Ad/gTRAIL	–
Nc1ccn([C@@H]2O[C@H](CO)[C@@H](O)C2(F)F)c(=O)n1 [Gemcitabine, gemcitabine]	–	37 nM	–	IC50 [1, 8]: 18.6 nM
CCc1c2c(nc3ccc(OC(=O)N4CCC(N5CCCCC5)CC4)cc13)-c1cc3c(c(=O)n1C2)COC(=O)[C@]3(O)CC [Irinotecan, irinotecan]	1540 nM	5940 nM	–	–
CC(=O)O[C@H]1C(=O)[C@@]2(C)[C@H]([C@H](OC(=O)c3ccccc3)[C@]3(O)C[C@H](OC(=O)[C@H](O)[C@@H](NC(=O)c4ccccc4)c4ccccc4)C(C)=C1C3(C)C)[C@]1(OC(C)=O)CO[C@@H]1C[C@@H]2O [Paclitexol, paclitaxel]	3.46 nM	16.9 nM	–	numbers of tumor nodules in the lung [4]: dramatically reduced the numbers of tumor nodules
CN(C)[C@@H]1C(O)=C(C(N)=O)C(=O)[C@@]2(O)C(O)=C3C(=O)c4c(O)cccc4[C@@](C)(O)[C@H]3C[C@@H]12 [Tc, tetracycline]	–	–	–	concentration that started to inhibit GFP-Bax expression [5]: 1 ng/mL
CCC1=C[C@@H]2CN(C1)Cc1c([nH]c3ccccc13)[C@@](C(=O)OC)(c1cc3c(cc1OC)N(C)[C@H]1[C@@](O)(C(=O)OC)[C@H](OC(C)=O)[C@]4(CC)C=CCN5CC[C@]31[C@@H]54)C2 [Vinorelbine, vinorelbine]	–	22.9 nM	–	IC50 [1, 8]: 2.4 nM
O=c1[nH]cc(F)c(=O)[nH]1 [fluorouracil]	–	–	can sensitize DLD1/TRAIL-R to Ad/gTRAIL at certain concentrations	–
C[C@]12CCC(=O)C=C1CC[C@@H]1[C@@H]2[C@@H](O)C[C@@]2(C)[C@H]1CC[C@]2(O)C(=O)CO [hydrocortisone]	–	–	–	reporter gene LacZ expression in lung [6]: dramatically increased
CO[C@@]12[C@H](COC(N)=O)C3=C(C(=O)C(C)=C(N)C3=O)N1C[C@@H]1N[C@@H]12 [mutamycin]	–	–	can sensitize DLD1/TRAIL-R to Ad/gTRAIL at certain concentrations	–
protamine	–	–	–	reporter gene LacZ expression in lung [6]: dramatically increased
B1	–	–	–	sensitivity to TRAIL protein (cell viability) ([7]; MDA-MB-231 and MDA-MB-468, up to 800 ng/ml, 24, 48, 96 h): sensitive; sensitivity to TRAIL protein (cell viability) ([7]; MDA-MB-453 and MCF7, 800 ng/ml): resistant
